Results from PubChem BioAssay AID1418 (Emory University Molecular Libraries Screening Center, 2008).
Activity calls are given as the source filed them. No rule for the calls is given here.

What follows are compounds tested against Induced myeloid leukemia cell differentiation protein Mcl-1 (Homo sapiens) (UniProt Q07820) (assay: blockers of Bid binding to Mcl-1 – biochemical, TR-FRET, dose response (AID 1418)). Settings: Mcl-1/Bid peptide binding, TR-FRET (europium/Dy647), 2 hr.
Sequence of Induced myeloid leukemia cell differentiation protein Mcl-1 (Homo sapiens) (Q07820 whole entry, looked up): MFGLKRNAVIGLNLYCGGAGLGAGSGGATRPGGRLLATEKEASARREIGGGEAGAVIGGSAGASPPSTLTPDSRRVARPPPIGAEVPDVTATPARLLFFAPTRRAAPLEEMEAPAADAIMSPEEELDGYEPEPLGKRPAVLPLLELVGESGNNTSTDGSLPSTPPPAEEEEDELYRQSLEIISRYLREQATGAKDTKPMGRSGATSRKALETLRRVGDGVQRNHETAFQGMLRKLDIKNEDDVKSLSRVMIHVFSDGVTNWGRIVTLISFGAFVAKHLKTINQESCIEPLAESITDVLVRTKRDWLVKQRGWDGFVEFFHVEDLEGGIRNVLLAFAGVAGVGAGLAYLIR

Question: With `O=C(O)c1ccccc1NS(=O)(=O)c1ccc(NNC(=S)Nc2ccc(OC(F)F)cc2)c([N+](=O)[O-])c1` as the compound, how does the IC50 read?
Answer: 0.62 µM

Question: For `CCC(CC)NC(=O)COC(=O)c1cc(Br)ccc1Cl`, which IC50 is on record?
Answer: > 54 µM (inactive)

Question: Which IC50 does the source give for `COC(=O)c1sccc1NC(=O)c1cc(C)on1` here?
Answer: > 54 µM (inactive)

Question: Which IC50 does the source give for `CC(=O)Oc1ccc(C(c2ccc(OC(C)=O)cc2)c2ccccn2)cc1` here?
Answer: > 54 µM (inactive)

Question: Which IC50 does the source give for `Cc1cccc(Cn2c(C)nc3c(N)c(C)c(C)cc32)c1` here?
Answer: > 54 µM (inactive)

Question: `COc1cc(S(=O)(=O)Nc2cccc(C)c2)ccc1NC(=O)c1ccncc1` was tested. Which IC50 did it give?
Answer: > 54 µM (inactive)

Question: How did the IC50 turn out when `N=C1/C(=C/c2ccc(-c3cccc(C(=O)O)c3)o2)C(=O)N=C2SC=C(c3ccccc3)N12` was run?
Answer: 1.02 µM

Question: Which IC50 does the source give for `FC(F)(F)c1cccc(N/N=C/c2ccccc2)c1` here?
Answer: > 54 µM (inactive)

Question: Which IC50 does the source give for `N#Cc1nc(COc2ccc(F)cc2)oc1N1CCN(Cc2ccccc2)CC1` here?
Answer: > 54 µM (inactive)

Question: For `C=CCOc1c(OC)cc(/C=N/Nc2cccc(C(=O)O)c2)c(Br)c1Br`, which IC50 is on record?
Answer: 18.3 µM

Question: With `C=C1C(=O)[C@@]23[C@H](O)C[C@@H]4C(C)(C)CC[C@H](O)[C@]4(C)[C@@H]2C[C@H](O)[C@@H]1[C@H]3O` as the compound, how does the IC50 read?
Answer: > 54 µM (inactive)

Question: `COc1cccc(NC(=O)CSc2nc3ccccc3n2C)c1` was tested. Which IC50 did it give?
Answer: > 54 µM (inactive)

Question: `Oc1c(Cl)cc(Cl)c(Cl)c1Cc1c(O)c(Cl)cc(Cl)c1Cl` was tested. Which IC50 did it give?
Answer: 0.86 µM

Question: With `O=C(N/N=C/C=C/c1ccc([N+](=O)[O-])cc1)c1cccs1` as the compound, how does the IC50 read?
Answer: inactive

Question: Which IC50 does the source give for `COc1ccc(C2SCC(=O)N2CCCN(C)C)cc1` (stereo not drawn) here?
Answer: > 54 µM (inactive)

Question: With `Cc1ccc(C)c(OCC(=O)Nc2ccc3c(c2)OCO3)c1C` as the compound, how does the IC50 read?
Answer: > 54 µM (inactive)

Question: With `CNc1nn(-c2cccc(Cl)c2)nc1N` as the compound, how does the IC50 read?
Answer: > 54 µM (inactive)

Question: Which IC50 does the source give for `COc1cccc(CNC(=O)C2CCN(S(=O)(=O)N3CCCCC3)CC2)c1` here?
Answer: > 54 µM (inactive)

Question: With `CCCCCC#CCC#CCC#CCC#CCCCC(=O)O` as the compound, how does the IC50 read?
Answer: 1.78 µM

Question: How did the IC50 turn out when `COc1ccc(OC)c(Nc2nc(-c3cccc([N+](=O)[O-])c3)nc3ccccc23)c1` was run?
Answer: > 54 µM (inactive)

Question: For `CCCCN(C)C(=O)c1coc(=O)c2ccccc12`, which IC50 is on record?
Answer: > 54 µM (inactive)

Question: How did the IC50 turn out when `Cc1ccc2c(c1)C1C=CCC1C(C(=O)O)N2` (stereo not drawn) was run?
Answer: 2.2 µM

Question: With `NC(=S)n1[nH]c(-c2ccc([N+](=O)[O-])cc2)c(N=Nc2cccc([N+](=O)[O-])c2)c1=O` as the compound, how does the IC50 read?
Answer: 2.37 µM

Question: How did the IC50 turn out when `O=C1OC(c2ccccc2)=C/C1=C/N1CCCCC1` was run?
Answer: > 54 µM (inactive)

Question: For `Cc1cc(N2CC(C)OC(C)C2)n2cc(-c3ccccc3)nc2n1` (stereo not drawn), which IC50 is on record?
Answer: > 54 µM (inactive)

Question: How did the IC50 turn out when `C=CCNCCCOc1ccc(Cl)cc1Br` was run?
Answer: > 54 µM (inactive)

Question: How did the IC50 turn out when `CC(/C=C1\SC(=S)N(CCCC(=O)Nc2ccc(C(=O)O)c(O)c2)C1=O)=C\c1ccccc1` was run?
Answer: 3.49 µM

Question: `CS(=O)(=O)NCc1ccc(C(=O)NCCOc2ccccc2)cc1` was tested. Which IC50 did it give?
Answer: > 54 µM (inactive)

Question: With `N#C/C(=C\c1ccc(N2CCCC2)c([N+](=O)[O-])c1)c1nc2ccccc2[nH]1` as the compound, how does the IC50 read?
Answer: 21.6 µM

Question: Which IC50 does the source give for `CC(Oc1ccc(Cl)cc1Cl)C(=O)N(C)c1ccccc1` (stereo not drawn) here?
Answer: > 54 µM (inactive)

Question: With `C=C(C=O)CC1CC(O)[C@]2(C)OC3CC4OC5C[C@]6(C)O[C@]7(C)CCC8OC9C[C@]%10(C)OC%11C(C)=CC(=O)OC%11CC%10OC9C[C@@H](C)C8OC7CC6O[C@]5(C)CC5OC5C4OC3CC2O1` (stereo partly drawn) as the compound, how does the IC50 read?
Answer: > 54 µM (inactive)

Question: `O=[N+]([O-])c1ccc(-c2cn(-c3ccc(Cl)cc3)c(=S)[nH]2)cc1` was tested. Which IC50 did it give?
Answer: > 54 µM (inactive)

Question: How did the IC50 turn out when `O=C(CSc1nnc(SCc2ccc(Cl)cc2)s1)N/N=C/c1c[nH]c2ccccc12` was run?
Answer: 0.44 µM

Question: How did the IC50 turn out when `COc1ccc(C(=O)C2CCCN(Cc3cn[nH]c3-c3ccc(F)cc3)C2)cc1OC` (stereo not drawn) was run?
Answer: > 54 µM (inactive)

Question: How did the IC50 turn out when `CC(C)n1c(SCC(=O)Nc2ccc3c(c2)OCO3)nc2c1c(=O)n(C)c(=O)n2C` was run?
Answer: > 54 µM (inactive)

Question: How did the IC50 turn out when `O=C(CN(C(=O)CNC(=O)c1ccco1)c1ccc2c(c1)OCO2)NC1CCCCC1` was run?
Answer: > 54 µM (inactive)

Question: With `CCOC(=O)C1CCCN(Cc2ccccc2OCC)C1` (stereo not drawn) as the compound, how does the IC50 read?
Answer: > 54 µM (inactive)

Question: `C=CCn1c(SCc2ccc([N+](=O)[O-])cc2)nnc1C(C)NC(=O)c1ccccc1` (stereo not drawn) was tested. Which IC50 did it give?
Answer: > 54 µM (inactive)
